How the values were obtained:
[1] = Inhibition of wild type EGFR in mouse BAF3 cells assessed as reduction in cell proliferation incubated for 3 days by celltiter-glo assay; type: cell-based; conditions: BaF3, 72 h
[2] = Inhibition of EGFR del19/T790M/C797S triple mutant in mouse BAF3 cells assessed as reduction in cell proliferation incubated for 3 days by celltiter-glo assay; type: cell-based; conditions: BaF3, 72 h
HCC827 = assay: Antiproliferative activity against human HCC827 cells harboring EGFR Del19 mutant incubated for 72 hrs by SRB assay; type: functional, cell-based; conditions: HCC827, 72 h
[3] = biological target: T1, Epidermal growth factor receptor (Homo sapiens, UniProt P00533, C797S/EX19DEL/T790M); assay: Inhibition of EGFR del19/T790M/C797S triple mutant (unknown origin) in presence of ATP by FRET assay
NCI-H1975 [4] = assay: Antiproliferative activity against human NCI-H1975 cells harboring EGFR L858R/T790M mutant incubated for 72 hrs by SRB assay; type: functional, cell-based; conditions: NCI-H1975, 72 h
[5] = biological target: Epidermal growth factor receptor (Homo sapiens, UniProt P00533, C797S/L858R/T790M); assay: Inhibition of EGFR L858R/T790M/C797S triple mutant (unknown origin) in presence of ATP by FRET assay
NCI-H1975 [6] = assay: Antiproliferative activity against human NCI-H1975 cells harboring EGFR L858R/T790M/C797S mutant incubated for 72 hrs by SRB assay; type: functional, cell-based; conditions: NCI-H1975, 72 h
[7] = biological target: T2, Epidermal growth factor receptor (Homo sapiens, UniProt P00533); assay: Inhibition of wild type EGFR (unknown origin) in presence of ATP by FRET assay
A-431 = assay: Antiproliferative activity against human A-431 cells harboring wild type EGFR incubated for 72 hrs by SRB assay; type: functional, cell-based; conditions: A-431, 72 h
PC-9 [8] = assay: Antiproliferative activity against human PC-9 cells harboring EGFR Del19/T790M/C797S mutant incubated for 72 hrs by SRB assay; type: functional, cell-based; conditions: PC-9, 72 h
PC-9 [9] = assay: Potency index, ratio of Brigatinib IC50 to test compound IC50 for antiproliferative activity against human PC-9 cells harboring EGFR Del19/T790M/C797S mutant incubated for 72 hrs by SRB assay; type: functional
[10] = Microsomal stability in mouse liver microsome assessed as parent compound remaining preincubated with compound for 60 mins and measured after 1 hr by HPLC analysis; type: ADME; conditions: liver microsomes, time 2 hrs, read-out: Stability
[11] = Inhibition of ERK phosphorylation in human A-431 cells harboring wild type EGFR incubated for 6 hrs by Western blot analysis; type: cell-based; conditions: A-431, 6 h
[12] = AUC (0 to 24 hrs) in mouse at 5 mg/kg, iv measured upto 24 hrs by LC-MS/MS analysis; type: ADME, organism-based; conditions: in vivo
[13] = Toxicity in NOD-SCID mouse xenografted with human PC-9 cells harboring Del19/T790M/C797S triple mutant assessed as body weight loss at 50 mg/kg, sc bid administered for 14 days; type: organism-based; conditions: in vivo, 336 h, time 14 day
[14] = AUC (0 to 24 hrs) in mouse at 75 mg/kg, po measured upto 24 hrs by LC-MS/MS analysis; type: ADME, organism-based; conditions: in vivo
[15] = Half life in mouse at 5 mg/kg, iv measured upto 24 hrs by LC-MS/MS analysis; type: ADME, organism-based; conditions: in vivo
[16] = Volume of distribution at steady state in mouse at 5 mg/kg, iv measured upto 24 hrs by LC-MS/MS analysis; type: ADME, organism-based; conditions: in vivo, read-out: Vdss
[17] = Half life in mouse at 75 mg/kg, po measured upto 24 hrs by LC-MS/MS analysis; type: ADME, organism-based; conditions: in vivo
[18] = Toxicity in NOD-SCID mouse xenografted with human PC-9 cells harboring Del19/T790M/C797S triple mutant assessed as clinical signs at 50 mg/kg, sc bid administered for 14 days; type: organism-based; conditions: in vivo, 336 h, time 14 day
[19] = Inhibition of ERK phosphorylation in human PC-9 cells harboring Del19/T790M/C797S mutant incubated for 6 hrs by Western blot analysis; type: cell-based; conditions: PC-9, 6 h
NCI-H1975 [20] = assay: Potency index, ratio of Brigatinib IC50 to test compound IC50 for antiproliferative activity against human NCI-H1975 cells harboring EGFR L858R/T790M/C797S mutant incubated for 72 hrs by SRB assay; type: functional
[21] = Clearance in mouse at 5 mg/kg, iv measured upto 24 hrs by LC-MS/MS analysis; type: ADME, organism-based; conditions: in vivo
[22] = Oral bioavailability in mouse at 75 mg/kg measured upto 24 hrs by LC-MS/MS analysis; type: ADME, organism-based; conditions: in vivo
[23] = Stability in human plasma assessed as parent compound remaining measured after 2 hrs by LC-MS/MS analysis; type: ADME, cell-free; conditions: read-out: Stability
[24] = Plasma protein binding in mouse assessed as unbound fraction measured after 6 hrs by rapid equilibrium dialysis based LC-MS/MS analysis; type: ADME, cell-free
[25] = Microsomal stability in human liver microsome assessed as parent compound remaining preincubated with compound for 60 mins and measured after 1 hr by HPLC analysis; type: ADME; conditions: liver microsomes, time 2 hrs, read-out: Stability
[26] = biological target: T2, Epidermal growth factor receptor; assay: Inhibition of EGFR phosphorylation in human A-431 cells harboring wild type EGFR incubated for 6 hrs by Western blot analysis; type: cell-based
[27] = Cmax in mouse at 75 mg/kg, po measured upto 24 hrs by LC-MS/MS analysis; type: ADME, organism-based; conditions: in vivo
[28] = biological target: T1, Epidermal growth factor receptor; assay: Inhibition of EGFR phosphorylation in human PC-9 cells harboring Del19/T790M/C797S mutant incubated for 6 hrs by Western blot analysis; type: cell-based
[29] = Stability in mouse plasma assessed as parent compound remaining measured after 2 hrs by LC-MS/MS analysis; type: ADME, cell-free; conditions: read-out: Stability
[30] = Tmax in mouse at 75 mg/kg, po measured upto 24 hrs by LC-MS/MS analysis; type: ADME, organism-based; conditions: in vivo
[31] = Inhibition of AKT phosphorylation in human A-431 cells harboring wild type EGFR incubated for 6 hrs by Western blot analysis; type: cell-based; conditions: A-431, 6 h
[32] = Plasma protein binding in human assessed as unbound fraction measured after 6 hrs by rapid equilibrium dialysis based LC-MS/MS analysis; type: ADME, cell-free
[33] = Inhibition of AKT phosphorylation in human PC-9 cells harboring Del19/T790M/C797S mutant incubated for 6 hrs by Western blot analysis; type: cell-based; conditions: PC-9, 6 h
[34] = Cmax in mouse at 5 mg/kg, iv measured upto 24 hrs by LC-MS/MS analysis; type: ADME, organism-based; conditions: in vivo

Sequence of Epidermal growth factor receptor (Homo sapiens, UniProt P00533, C797S/L858R/T790M) (P00533 25-1210 T790M/C797S/L858R limits assumed): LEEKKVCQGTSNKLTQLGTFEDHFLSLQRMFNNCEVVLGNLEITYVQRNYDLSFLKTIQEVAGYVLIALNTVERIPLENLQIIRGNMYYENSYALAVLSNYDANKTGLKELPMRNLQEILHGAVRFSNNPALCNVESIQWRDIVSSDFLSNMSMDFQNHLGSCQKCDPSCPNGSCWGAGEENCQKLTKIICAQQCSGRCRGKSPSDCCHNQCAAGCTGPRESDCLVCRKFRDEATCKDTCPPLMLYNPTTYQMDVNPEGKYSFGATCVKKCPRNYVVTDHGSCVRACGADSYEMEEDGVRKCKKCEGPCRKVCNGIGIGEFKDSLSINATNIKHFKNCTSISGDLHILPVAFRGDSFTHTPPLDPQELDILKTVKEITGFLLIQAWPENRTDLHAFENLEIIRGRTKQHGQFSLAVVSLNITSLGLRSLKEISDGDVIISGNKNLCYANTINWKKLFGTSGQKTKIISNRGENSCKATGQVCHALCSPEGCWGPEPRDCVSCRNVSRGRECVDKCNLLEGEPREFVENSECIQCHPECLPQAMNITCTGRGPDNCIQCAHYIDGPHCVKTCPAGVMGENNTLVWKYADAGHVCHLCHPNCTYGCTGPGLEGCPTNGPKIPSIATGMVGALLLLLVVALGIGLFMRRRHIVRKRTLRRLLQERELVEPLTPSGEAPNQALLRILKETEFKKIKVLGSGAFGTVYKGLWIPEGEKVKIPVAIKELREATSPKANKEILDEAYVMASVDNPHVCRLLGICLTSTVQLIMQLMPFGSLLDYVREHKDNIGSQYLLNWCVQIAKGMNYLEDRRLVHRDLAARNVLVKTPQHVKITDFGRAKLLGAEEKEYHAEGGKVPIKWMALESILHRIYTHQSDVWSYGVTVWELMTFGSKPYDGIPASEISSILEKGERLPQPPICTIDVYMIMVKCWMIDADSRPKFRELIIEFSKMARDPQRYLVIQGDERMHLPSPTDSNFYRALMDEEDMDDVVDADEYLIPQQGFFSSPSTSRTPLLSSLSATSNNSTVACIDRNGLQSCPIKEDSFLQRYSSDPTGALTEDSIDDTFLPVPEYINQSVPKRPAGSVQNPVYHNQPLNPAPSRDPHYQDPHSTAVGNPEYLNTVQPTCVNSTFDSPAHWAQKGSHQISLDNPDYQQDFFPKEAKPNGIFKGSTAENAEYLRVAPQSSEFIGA
T2 sequence (P00533 whole entry): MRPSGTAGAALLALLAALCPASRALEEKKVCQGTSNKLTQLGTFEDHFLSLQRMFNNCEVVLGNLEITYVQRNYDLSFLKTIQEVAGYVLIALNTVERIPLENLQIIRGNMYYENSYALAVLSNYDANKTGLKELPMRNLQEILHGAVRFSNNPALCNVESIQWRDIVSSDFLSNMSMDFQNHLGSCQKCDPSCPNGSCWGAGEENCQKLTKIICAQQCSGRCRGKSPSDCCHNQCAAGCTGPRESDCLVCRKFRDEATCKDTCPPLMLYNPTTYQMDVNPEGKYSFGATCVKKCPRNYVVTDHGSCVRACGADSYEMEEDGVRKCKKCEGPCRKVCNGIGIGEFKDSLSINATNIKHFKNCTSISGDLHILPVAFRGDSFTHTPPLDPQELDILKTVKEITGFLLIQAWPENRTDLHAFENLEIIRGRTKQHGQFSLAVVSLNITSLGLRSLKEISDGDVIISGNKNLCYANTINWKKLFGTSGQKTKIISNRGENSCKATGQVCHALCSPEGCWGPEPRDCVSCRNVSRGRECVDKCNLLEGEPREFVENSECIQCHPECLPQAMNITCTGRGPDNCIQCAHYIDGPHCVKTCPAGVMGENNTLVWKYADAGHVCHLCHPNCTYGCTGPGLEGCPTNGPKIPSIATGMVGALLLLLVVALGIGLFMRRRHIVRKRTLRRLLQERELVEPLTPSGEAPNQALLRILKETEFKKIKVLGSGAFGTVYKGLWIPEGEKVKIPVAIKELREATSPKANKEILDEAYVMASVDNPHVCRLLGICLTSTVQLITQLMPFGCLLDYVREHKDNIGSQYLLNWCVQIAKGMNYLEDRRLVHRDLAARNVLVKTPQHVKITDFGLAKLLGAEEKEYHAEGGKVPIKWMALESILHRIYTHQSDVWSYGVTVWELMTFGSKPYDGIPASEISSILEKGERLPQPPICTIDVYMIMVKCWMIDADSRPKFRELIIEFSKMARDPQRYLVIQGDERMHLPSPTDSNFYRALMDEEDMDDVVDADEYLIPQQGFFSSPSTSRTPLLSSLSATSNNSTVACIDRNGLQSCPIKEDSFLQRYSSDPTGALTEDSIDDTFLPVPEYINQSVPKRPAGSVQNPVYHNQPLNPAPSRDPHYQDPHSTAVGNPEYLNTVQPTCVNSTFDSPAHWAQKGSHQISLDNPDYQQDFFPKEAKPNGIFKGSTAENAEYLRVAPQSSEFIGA
T1 sequence (P00533 whole entry, looked up, stated change not applied): as the sequence (P00533 whole entry) above

With CN(c1ccccc1Nc1nc(Nc2ccc(N3CCCCC3)c(F)c2)nc2[nH]ccc12)S(C)(=O)=O the IC50 [1] was 739 nM and the IC50 [2] was 741 nM.
CC(C)N1CCN(c2ccc(Nc3nc(Nc4ccccc4N(C)S(C)(=O)=O)c4cc[nH]c4n3)cc2F)CC1 gave an IC50 [1] of 670 nM and an IC50 [2] of 157 nM.
Work on CN(c1ccccc1Nc1nc(Nc2ccc(N3CCCCC3)cc2)nc2[nH]ccc12)S(C)(=O)=O yielded an IC50 [1] of 1240 nM and an IC50 [2] of 566 nM.
CN1CCN(c2ccc(Nc3nc(Nc4ccccc4N(C)S(C)(=O)=O)c4cc[nH]c4n3)cc2F)CC1 gave an IC50 [1] of 267 nM, an IC50 (HCC827) of 230 nM and an IC50 [2] of 22.5 nM. The IC50 [3] was 4 nM, the IC50 (NCI-H1975 [4]) was 185 nM and the IC50 [5] was 20.2 nM. The IC50 (NCI-H1975 [6]) was 289 nM, the IC50 [7] was 1530 nM and the IC50 (A-431) was 263 nM. The IC50 (PC-9 [8]) was 208 nM.
For CN1CCN(c2ccc(Nc3nc(Nc4ccccc4N(C)S(C)(=O)=O)c4cc[nH]c4n3)cc2Cl)CC1, the IC50 [1] was 47.4 nM and the IC50 [2] was 53.8 nM.
In the case of CN1CCN(c2ccc(Nc3nc(Nc4ccccc4N(C4CC4)S(C)(=O)=O)c4cc[nH]c4n3)cc2F)CC1, the IC50 [1] is reported as 273 nM and the IC50 [2] is reported as 55.9 nM.
In the case of CCS(=O)(=O)N(C)c1ccccc1Nc1nc(Nc2ccc(N3CCN(C)CC3)c(F)c2)nc2[nH]ccc12, the IC50 [1] is reported as 238 nM and the IC50 [2] is reported as 16.4 nM.
With CCN1CCN(c2ccc(Nc3nc(Nc4ccccc4N(C)S(C)(=O)=O)c4cc[nH]c4n3)cc2F)CC1 the “Ratio IC50” value (PC-9 [9]) was 5.4, the remaining at 1 h [10] was 33% and the IC50 [11] was 3940 nM. For the same molecule, the AUC(0-t) at 24 h [12] was 978 ng·h/mL, the Activity [13] was “Non-Toxic” and the AUC(0-t) at 24 h [14] was 34000 ng·h/mL. The half-life [15] was 0.7 h, the Vd [16] was 2 L/kg and the half-life [17] was 2.3 h. The Activity [18] was “Non-Toxic”, the IC50 [19] was 23 nM and the “Ratio IC50” value (NCI-H1975 [20]) was 5.4. The IC50 [1] was 667 nM, the clearance [21] was 85 mL/min/kg and the bioavailability [22] was over 100%. It also gave an IC50 (HCC827) of 121 nM, a remaining at 2 h [23] of 91.8% and a fraction unbound at 6 h [24] of 0.926. The IC50 [2] was 10.1 nM, the remaining at 1 h [25] was 41.9% and the IC50 [26] was 1320 nM. For the same molecule, the IC50 [3] was 9.2 nM, the Cmax [27] was 6030 ng/mL and the IC50 [28] was 9.6 nM. The IC50 (NCI-H1975 [4]) was 178 nM, the remaining at 2 h [29] was 97.8% and the IC50 [5] was 12.7 nM. For the same molecule, the IC50 (NCI-H1975 [6]) was 202 nM, the Tmax [30] was 0.5 h and the IC50 [7] was over 10000 nM. For the same molecule, the IC50 [31] was 2160 nM, the fraction unbound at 6 h [32] was 0.916 and the IC50 [33] was 27 nM. For the same molecule, the IC50 (A-431) was 334 nM, the Cmax [34] was 4550 ng/mL and the IC50 (PC-9 [8]) was 155 nM.
COc1cc(N2CCN(C)CC2)ccc1Nc1nc(Nc2ccccc2N(C)S(C)(=O)=O)c2cc[nH]c2n1 gave an IC50 [1] of 3170 nM and an IC50 [2] of 329 nM.
Work on CC(C)N(c1ccccc1Nc1nc(Nc2ccc(N3CCN(C)CC3)c(F)c2)nc2[nH]ccc12)S(C)(=O)=O yielded an IC50 [1] of 307 nM and an IC50 [2] of 71.2 nM.
For CN1CCN(c2ccc(Nc3nc(Nc4ccccc4N(C)S(=O)(=O)C4CC4)c4cc[nH]c4n3)cc2F)CC1, the IC50 [1] was 214 nM and the IC50 [2] was 29.6 nM.
In the case of CCN1CCN(C2CCN(c3ccc(Nc4nc(Nc5ccccc5N(C)S(C)(=O)=O)c5cc[nH]c5n4)cc3F)CC2)CC1, the “Ratio IC50” value (PC-9 [9]) is reported as 5.4, the remaining at 1 h [10] is reported as 24% and the IC50 [11] is reported as 1670 nM. For the same molecule, the AUC(0-t) at 24 h [12] was 1560 ng·h/mL, the Activity [13] was “Non-Toxic” and the AUC(0-t) at 24 h [14] was 35800 ng·h/mL. The half-life [15] was 1.7 h, the Vd [16] was 10.8 L/kg and the half-life [17] was 3.5 h. For the same molecule, the Activity [18] was “Non-Toxic”, the IC50 [19] was 26 nM and the “Ratio IC50” value (NCI-H1975 [20]) was 5.4. The IC50 [1] was 713 nM, the clearance [21] was 53.3 mL/min/kg and the bioavailability [22] was over 100%. The IC50 (HCC827) was 84.2 nM, the remaining at 2 h [23] was 99.1% and the fraction unbound at 6 h [24] was 0.946. It also gave an IC50 [2] of 15.5 nM, a remaining at 1 h [25] of 57.3% and an IC50 [26] of 1180 nM. For the same molecule, the IC50 [3] was 4.2 nM, the Cmax [27] was 5480 ng/mL and the IC50 [28] was 7.4 nM. It also gave an IC50 (NCI-H1975 [4]) of 98.8 nM, a remaining at 2 h [29] of 97.4% and an IC50 [5] of 4.7 nM. The IC50 (NCI-H1975 [6]) was 130 nM, the Tmax [30] was 2 h and the IC50 [7] was 10300 nM. It also gave an IC50 [31] of 1820 nM, a fraction unbound at 6 h [32] of 0.937 and an IC50 [33] of 7.1 nM. The IC50 (A-431) was 484 nM, the Cmax [34] was 1560 ng/mL and the IC50 (PC-9 [8]) was 151 nM.
CN1CCN(C2CCN(c3ccc(Nc4nc(Nc5ccccc5N(C)S(C)(=O)=O)c5cc[nH]c5n4)cc3F)CC2)CC1 gave an IC50 [1] of 254 nM, an IC50 (HCC827) of 370 nM and an IC50 [2] of 11.4 nM. For the same molecule, the IC50 [3] was 4 nM, the IC50 (NCI-H1975 [4]) was 211 nM and the IC50 [5] was 4.9 nM. The IC50 (NCI-H1975 [6]) was 196 nM, the IC50 [7] was 4580 nM and the IC50 (A-431) was 317 nM. For the same molecule, the IC50 (PC-9 [8]) was 262 nM.
CN(c1ccccc1Nc1nc(Nc2ccc(N3CCN(C(=O)OC(C)(C)C)CC3)c(F)c2)nc2[nH]ccc12)S(C)(=O)=O gave an IC50 [1] of 2400 nM and an IC50 [2] of 426 nM.
